The source of these data is patent US20260062422A1 (Halda Therapeutics OpCo, Inc., priority 2022, published 2026).

Molecules are shown by their SMILES.

In the assay the target is T1, progesterone receptor (Homo sapiens, UniProt P06401).
T1 construct: host or cells: T47D cells (cytosolic fraction)
T1 sequence (P06401 1-933): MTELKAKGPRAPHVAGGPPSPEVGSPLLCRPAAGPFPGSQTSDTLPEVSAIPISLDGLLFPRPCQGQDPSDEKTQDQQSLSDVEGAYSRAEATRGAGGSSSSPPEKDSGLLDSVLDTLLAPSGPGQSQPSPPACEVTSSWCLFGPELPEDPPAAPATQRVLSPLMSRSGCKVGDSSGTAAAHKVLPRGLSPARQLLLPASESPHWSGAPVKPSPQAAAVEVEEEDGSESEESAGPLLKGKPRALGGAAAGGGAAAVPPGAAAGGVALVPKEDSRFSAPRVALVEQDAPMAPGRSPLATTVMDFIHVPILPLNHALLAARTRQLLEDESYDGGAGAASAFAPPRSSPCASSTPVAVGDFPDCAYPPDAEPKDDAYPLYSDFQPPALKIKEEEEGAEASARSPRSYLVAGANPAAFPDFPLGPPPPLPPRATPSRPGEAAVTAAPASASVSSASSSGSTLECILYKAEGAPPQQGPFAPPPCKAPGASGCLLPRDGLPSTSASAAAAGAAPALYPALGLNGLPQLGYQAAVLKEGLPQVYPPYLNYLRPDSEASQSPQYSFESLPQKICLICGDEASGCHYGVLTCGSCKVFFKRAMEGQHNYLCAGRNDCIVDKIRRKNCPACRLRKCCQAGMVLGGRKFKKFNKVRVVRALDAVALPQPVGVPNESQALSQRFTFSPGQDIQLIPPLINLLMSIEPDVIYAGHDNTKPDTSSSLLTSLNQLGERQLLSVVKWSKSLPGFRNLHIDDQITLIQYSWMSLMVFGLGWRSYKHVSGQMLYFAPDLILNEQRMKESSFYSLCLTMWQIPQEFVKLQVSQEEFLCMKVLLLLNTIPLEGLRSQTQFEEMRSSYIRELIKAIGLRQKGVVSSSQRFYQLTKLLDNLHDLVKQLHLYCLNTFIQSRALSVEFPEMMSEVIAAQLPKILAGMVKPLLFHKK
In words: PR Human Progesterone NHR Binding (Agonist Radioligand) Assay, T47D cytosol. Conditions: T47D cytosolic fractions, 0.5 nM [3H]progesterone, 1 hour at 4° C., Table 16. As for the experimental part: Compounds were tested using the PR Human Progesterone NHR Binding (Agonist Radioligand) Assay, Cerep at Eurofins Discovery using a modified version of the protocol from Sarup et al. (Cancer Res 1988; 48:5071-5078). Briefly, cytosolic fractions of T47D cells were incubated with 0.5 nM [^3H]progesterone for 1 hour at 4° C. in the absence or presence of the test compound. Nonspecific binding was determined in the presence of 1 μM promegestone. Reactions were subjected to scintillation counting. Results are expressed as a percent inhibition of the control radioligand specific binding.
`Cc1sc2c(c1C)C(c1ccc(OC3CC4(C3)CC3(CCN(c5ncc(C(=O)N[C@H]6C(C)(C)[C@H](Oc7ccc(C#N)c(Cl)c7)C6(C)C)cn5)CC3)C4)cc1)=N[C@@H](Cc1ncco1)c1nnc(C)n1-2` [Compound I-283]: the Ki is < 50 nM.

Regarding `Cc1sc2c(c1C)C(c1ccc(OCCOC3CCN(c4ncc(C(=O)N[C@H]5C(C)(C)[C@H](Oc6ccc(C#N)c(Cl)c6)C5(C)C)cn4)CC3)cc1)=N[C@@H](CC(=O)OC(C)(C)C)c1nnc(C)n1-2` [Compound I-235, tert-butyl 2-((S)-4-(4-(2-((1-(5-(((1r,3r)-3-(3-chloro-4-cyanophenoxy)-2,2,4,4-tetramethylcyclobutyl)carbamoyl)pyrimidin-2-yl)piperidin-4-yl)oxy)ethoxy)phenyl)-2,3,9-trimethyl-6H-thieno[3,2-f][1,2,4]triazolo[4,3-a][1,4]diazepin-6-yl)acetate], the inhibition constant Ki was < 50 nM.

As for `CCNC(=O)C[C@@H]1N=C(c2ccc(N3CCC(OC4CCN(c5ncc(C(=O)N[C@H]6C(C)(C)[C@H](Oc7ccc(C#N)c(Cl)c7)C6(C)C)cn5)CC4)CC3)cc2)c2c(sc(C)c2C)-n2c(C)nnc21` [Compound I-114], the Ki was < 50 nM.

As to `CCNC(=O)C[C@@H]1N=C(c2ccc(OCC3CN(c4ncc(C(=O)N[C@H]5C(C)(C)[C@H](Oc6ccc(C#N)c(Cl)c6)C5(C)C)cn4)C3)cc2)c2c(sc(C)c2C)-n2c(C)nnc21` [Compound I-71], the Ki is < 50 nM.

For the compound `Cc1sc2c(c1C)C(c1ccc(N3CC(CC4CCN(c5ncc(C(=O)N[C@H]6C(C)(C)[C@H](Oc7ccc(C#N)c(Cl)c7)C6(C)C)cn5)CC4)C3)cc1)=N[C@@H](C)c1nnc(C)n1-2` [Compound I-270], the inhibitory constant (Ki) is < 50 nM.

For the compound `Cc1sc2c(c1C)C(c1ccc(CC3CC4(CCN(c5ncc(C(=O)N[C@H]6C(C)(C)[C@H](Oc7ccc(C#N)c(Cl)c7)C6(C)C)cn5)CC4)C3)cc1)=N[C@@H](C)c1nnc(C)n1-2` [Compound I-303], the Ki is < 50 nM.
